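Dose response: 5 concentrations. Exposure: 48 h. Format: 96-well plates. Endpoint: linear interpolation; highest concentration if not reached. Abbreviation: GI50, concentration required for 50% inhibition of growth. Definition used: TGI = concentration required for complete inhibition of growth.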
How the values were obtained:
Assay in all cases: NCI anticancer screen, dose series, 48 h
[1] = test system: EKVX NSCLC
[2] = test system: SK-MEL-2 melanoma
[3] = test system: RXF 393 renal
[4] = test system: OVCAR-5 ovarian
[5] = test system: SK-MEL-28 melanoma
[6] = test system: LOX IMVI melanoma
[7] = test system: HCC-2998 colon
[8] = test system: HOP-92 NSCLC

SMILES: CCCCN(CCCC)C(=O)C(=O)CC(=O)/C=C/c1ccccc1
- TGI [1]: > 100 µM
- TGI [2]: > 100 µM
- TGI [3]: > 100 µM
- TGI [4]: > 100 µM
- TGI [5]: > 100 µM
- TGI [6]: > 100 µM
- TGI [7]: > 100 µM
- TGI [8]: > 100 µM

SMILES: CC(=O)OCC(OC(C)=O)C(OC(C)=O)C(OC(C)=O)C(=O)CNn1c(-c2ccccc2Cl)nc2ccc(Br)cc2c1=O (centres undefined)
- TGI [1]: > 100 µM
- TGI [2]: > 100 µM
- TGI [3]: > 100 µM
- TGI [4]: > 100 µM
- TGI [5]: > 100 µM
- TGI [6]: > 100 µM

SMILES: C/C=C/C(=O)[O-].N.N.N.N.N.[Co+3].[O-][Cl+3]([O-])([O-])[O-]
- GI50 [1]: > 100 µM
- TGI [1]: > 100 µM
- GI50 [2]: > 100 µM
- TGI [2]: > 100 µM
- GI50 [4]: > 100 µM
- TGI [4]: > 100 µM
- GI50 [5]: > 100 µM
- TGI [5]: > 100 µM
- GI50 [6]: > 100 µM
- TGI [6]: > 100 µM
- GI50 [7]: > 100 µM
- TGI [7]: > 100 µM
- GI50 [8]: > 100 µM
- TGI [8]: > 100 µM

SMILES: COC(=O)C12C3C4C1C1C2C3C41C(=O)N(C(C)C)C(C)C (centres undefined)
- TGI [1]: > 100 µM
- TGI [4]: > 100 µM
- TGI [5]: > 100 µM
- TGI [7]: > 100 µM
- TGI [8]: > 100 µM

SMILES: O=C(O)Cc1cc(=O)[nH]c2c1C(=O)CCC2
- TGI [1]: > 100 µM
- TGI [2]: > 100 µM
- TGI [3]: > 100 µM
- TGI [4]: > 100 µM
- TGI [5]: > 100 µM
- TGI [7]: > 100 µM
- TGI [8]: > 100 µM

SMILES: CN/N=C(\C(=O)Nc1ccc([N+](=O)[O-])cc1[N+](=O)[O-])C1NC(=O)NC1=O (centres undefined)
- TGI [1]: > 100 µM
- TGI [2]: > 100 µM
- TGI [3]: > 100 µM
- TGI [4]: > 100 µM
- TGI [5]: > 100 µM
- TGI [6]: > 100 µM
- TGI [7]: > 100 µM
- TGI [8]: > 100 µM

SMILES: Cc1ccc(SCC(O)=C2C(=O)CCCC2=O)cc1
- TGI [1]: > 100 µM
- TGI [2]: > 100 µM
- TGI [3]: > 100 µM
- TGI [4]: > 100 µM
- TGI [5]: > 100 µM
- TGI [6]: > 100 µM
- TGI [8]: > 100 µM

SMILES: O=C(O)c1oc2cccc3c2c1CCC3
- TGI [1]: > 100 µM
- TGI [2]: > 100 µM
- TGI [3]: > 100 µM
- TGI [4]: > 100 µM
- TGI [5]: > 100 µM
- TGI [6]: > 100 µM
- TGI [7]: > 100 µM
- TGI [8]: > 100 µM

SMILES: c1ccc(COc2cccc3cccnc23)cc1
- TGI [1]: > 100 µM
- TGI [3]: > 100 µM
- TGI [4]: > 100 µM
- TGI [5]: > 100 µM
- TGI [6]: > 100 µM
- TGI [7]: > 100 µM
- TGI [8]: > 100 µM

SMILES: Cc1cccc(O)c(=O)c1
- TGI [1]: 98.9 µM
- TGI [3]: > 100 µM
- TGI [4]: > 100 µM
- TGI [5]: > 100 µM
- TGI [6]: > 100 µM
- TGI [7]: > 100 µM
- TGI [8]: > 100 µM

SMILES: COC(=O)/C(=N/O)C(C(=O)OC)C(=O)C(=O)Nc1c(Cl)cc(C)cc1S(=O)(=O)O (centres undefined)
- TGI [1]: > 100 µM
- TGI [2]: > 100 µM
- TGI [3]: > 100 µM
- TGI [4]: > 100 µM
- TGI [5]: > 100 µM
- TGI [6]: > 100 µM
- TGI [7]: > 100 µM
- TGI [8]: > 100 µM

SMILES: COc1cc(C2(C)SCCCS2)c(I)c(OC)c1OC
- TGI [1]: > 100 µM
- TGI [2]: > 100 µM
- TGI [4]: > 100 µM
- TGI [5]: > 100 µM
- TGI [6]: > 100 µM
- TGI [7]: > 100 µM
- TGI [8]: > 100 µM

SMILES: O=c1cccccc1NCCNc1cccccc1=O
- TGI [1]: > 100 µM
- TGI [2]: > 100 µM
- TGI [3]: > 100 µM
- TGI [4]: > 100 µM
- TGI [6]: > 100 µM
- TGI [8]: > 100 µM

SMILES: C[C@@H](c1ccccc1)N(CC#N)C1CCC[C@H]1O (some centres undefined)
- TGI [1]: > 100 µM
- TGI [2]: > 100 µM
- TGI [3]: > 100 µM
- TGI [5]: > 100 µM
- TGI [6]: > 100 µM
- TGI [7]: > 100 µM
- TGI [8]: > 100 µM

SMILES: [N-]=[N+]=Nc1c(Br)c(=O)[nH]c(=O)n1COCCO
- TGI [3]: > 100 µM
- TGI [4]: > 100 µM
- TGI [5]: > 100 µM
- TGI [6]: > 100 µM
- TGI [7]: > 100 µM
- TGI [8]: > 100 µM

SMILES: O=C1C2=C(c3ccccc31)C(c1ccc(F)cc1)N1C(=O)CCSC1=N2 (centres undefined)
- TGI [1]: > 100 µM
- TGI [2]: > 100 µM
- TGI [4]: > 100 µM
- TGI [5]: > 100 µM
- TGI [7]: > 100 µM
- TGI [8]: 97.7 µM

SMILES: O=C(Nc1ccccc1C(=O)O)C(=O)C(C(=O)c1ccccc1-c1ccccc1)C1OC(=O)c2ccccc21 (centres undefined)
- TGI [1]: 58.6 µM
- TGI [2]: > 100 µM
- TGI [3]: 27.2 µM
- TGI [4]: 42.2 µM
- TGI [5]: 35.1 µM
- TGI [6]: 38.3 µM
- TGI [7]: 30.6 µM

SMILES: CCCCCCCCCCCCCCC(O)C1CCC(C(O)CCC(O)CCCCCC(O)CC2=CC(C)OC2=O)O1 (centres undefined)
- TGI [1]: 16.2 µM
- TGI [2]: 9.03 µM
- TGI [4]: 20.3 µM
- TGI [5]: 10.1 µM
- TGI [6]: 4.59 µM
- TGI [7]: 4.94 µM
- TGI [8]: 11.7 µM

SMILES: Cc1cc(Cl)ccc1NC(=O)CCCC(=O)C(C(=O)c1ccccc1)c1ccccc1 (centres undefined)
- TGI [2]: > 100 µM
- TGI [4]: > 100 µM
- TGI [6]: > 100 µM
- TGI [7]: > 100 µM
- TGI [8]: > 100 µM

SMILES: CCOC(=O)NC(=O)c1cn(C2OC(CO)C(O)C2O)c(=O)[nH]c1=O (centres undefined)
- TGI [1]: > 100 µM
- TGI [2]: > 100 µM
- TGI [3]: > 100 µM
- TGI [4]: > 100 µM
- TGI [5]: > 100 µM
- TGI [6]: > 100 µM
- TGI [7]: > 100 µM

SMILES: CCC1(CC)C(=O)[N-]C(=O)[N-]C1=O.[Au+].[Au+].c1ccc([PH+](c2ccccc2)c2ccccc2)cc1.c1ccc([PH+](c2ccccc2)c2ccccc2)cc1
- GI50 [4]: 1.68 µM
- TGI [4]: 3.06 µM
- GI50 [5]: 0.988 µM
- TGI [5]: 2.34 µM
- GI50 [7]: 1.98 µM
- TGI [7]: 3.41 µM

SMILES: Cc1ccc(C)c2c1CCc1cc3ccccc3nc1-2
- TGI [1]: > 100 µM
- TGI [2]: > 100 µM
- TGI [4]: > 100 µM
- TGI [5]: > 100 µM
- TGI [7]: > 100 µM

Reference: PubChem BioAssay (NCI)
